# Test results: PubChem BioAssay AID1259411 (Chemical Carcinogenesis Research Information System (CCRIS), 2018)
# Activity calls are given as the source filed them. How the calls were made is not given here.
# Test system: rodent carcinogenicity bioassays, tumor incidence
# Experiment: CCRIS carcinogenicity studies
# Method in brief: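 NCI-built, expert-reviewed records of carcinogenicity and related test outcomes (mutagenicity, tumor promotion/inhibition) compiled from published and report sources, historical span 1985-2011, not updated.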
smiles,measurement,setting,value
O=NN1CCC[C@H]1c1cccnc1,carcinogen call,"Species: HAMSTER, Route: SUBCUTANEOUS, Tumor Site: Type of Lesion: TRACHEA",active; positive
same,carcinogen call,"Species: MINK, Strain/Sex: MALE, FEMALE, Route: SUBCUTANEOUS, Dose: 0, 11.9 MILLIMOLAR (TOTAL DOSE) GIVEN IN SUBDOSES 2/WK FOR 38 WK (STUDY DURATION: 185 WK), Tumor Site: Type of Lesion: NASAL CAVITY: TUMORS",active; positive
same,carcinogen call,"Species: MOUSE, Route: INTRAPERITONEAL, Tumor Site: Type of Lesion: LUNG",active; positive
same,carcinogen call,"Species: MOUSE, Strain/Sex: CFLP/FEMALE, Route: DERMAL, Dose: 0, 12.5, 50, 200 UG IN ACETONE 2 D/WK FOR 104 WK (STUDY DURATION: 24 MO), Dose: 0, 12.5, 50, 200 UG IN ACETONE 2 D/WK FOR 104 WK (STUDY DURATION: 24 MO)",inactive; negative
same,carcinogen call,"Species: MOUSE, Strain/Sex: STRAIN-A/FEMALE, Route: INTRAPERITONEAL, Dose: 0, 40, 200 UMOL TOTAL DOSE ADMINISTERED IN SUBDOSES 3/WK FOR 7 WK (STUDY DURATION: 37 WK), Dose: 0, 40, 200 UMOL TOTAL DOSE ADMINISTERED IN SUBDOSES 3/WK FOR 7 WK (STUDY DURATION: 37 WK), Tumor Site: Type of Lesion: LUNG: TUMOR",active; positive
same,carcinogen call,"Species: RAT, Route: ORAL, Tumor Site: Type of Lesion: ESOPHAGUS, NASAL CAVITY",active; positive
same,carcinogen call,"Species: RAT, Strain/Sex: F344/FEMALE, Route: SUBCUTANEOUS, Dose: 0, 1, 3, 9 MMOL/KG BW (TOTAL DOSE) WITH SUBDOSES GIVEN 3/WK FOR 20 WK WITH A 2 WK INTERRUPTION AFTER 7 WK (STUDY DURATIO, Dose: 0, 1, 3, 9 MMOL/KG BW (TOTAL DOSE) WITH SUBDOSES GIVEN 3/WK FOR 20 WK WITH A 2 WK INTERRUPTION AFTER 7 WK (STUDY DURATIO, Tumor Site: Type of Lesion: NASAL CAVITY: TUMORS, ESOPHAGUS: BENIGN TUMORS",active; positive
same,carcinogen call,"Species: RAT, Strain/Sex: F344/MALE, Route: SUBCUTANEOUS, Dose: 0, 1, 3, 9 MMOL/KG BW (TOTAL DOSE) WITH SUBDOSES GIVEN 3/WK FOR 20 WK WITH A 2 WK INTERRUPTION AFTER 7 WK (STUDY DURATIO, Dose: 0, 1, 3, 9 MMOL/KG BW (TOTAL DOSE) WITH SUBDOSES GIVEN 3/WK FOR 20 WK WITH A 2 WK INTERRUPTION AFTER 7 WK (STUDY DURATIO, Tumor Site: Type of Lesion: NASAL CAVITY: TUMORS, LUNG: TUMORS, ESOPHAGUS: BENIGN TUMORS, Tumor Site: Type of Lesion: NASAL CAVITY: TUMORS, LUNG: TUMORS, ESOPHAGUS: BENIGN TUMORS",active; positive
Cc1cc(NS(=O)(=O)c2ccc(N)cc2)no1,carcinogen call,"Species: RAT, Strain/Sex: CD-1/MALE,FEMALE, Route: ORAL, Dose: 25, 50, 150, 300, 600 MG/KG/D IN DIET FOR 60 WK, Dose: 25, 50, 150, 300, 600 MG/KG/D IN DIET FOR 60 WK, Tumor Site: Type of Lesion: THYROID GLAND: ADENOMA OR NODULES",active; positive
Cc1cc(-c2ccccc2C)ccc1N=O,carcinogen call,"Species: HAMSTER, Strain/Sex: SYRIAN/FEMALE, Route: SUBCUTANEOUS, Dose: 0.15 MMOL/KG IN PEANUT OIL 1/WK FOR 37 WK (TOTAL DOSE 5.6 MMOL/KG), Tumor Site: Type of Lesion: INJECTION SITE: RHABDOMYOSARCOMA, SPINDLE CELL CARCINOMA, PLEIOMORPHIC SARCOMA",active; positive
same,carcinogen call,"Species: HAMSTER, Strain/Sex: SYRIAN/MALE, Route: SUBCUTANEOUS, Dose: 0.15 MMOL/KG IN PEANUT OIL 1/WK FOR 37 WK (TOTAL DOSE 5.6 MMOL/KG), Tumor Site: Type of Lesion: INJECTION SITE: RHABDOMYOSARCOMA, PLEIOMORPHIC SARCOMA",active; positive
O=P([O-])([O-])[O-].O=P([O-])([O-])[O-].[Pb+2].[Pb+2].[Pb+2],carcinogen call,"Species: RAT, Strain/Sex: ALBINO, Route: SUBCUTANEOUS, Dose: 20 MG 1/WK FOR UP TO 16 MO (TOTAL DOSE 40-760 MG/RAT), Tumor Site: Type of Lesion: KIDNEY: ADENOMA, PAPILLOMA, CYSTADENOMA, CARCINOMA",active; positive
same,carcinogen call,"Species: RAT, Strain/Sex: STRAIN-CB/MALE, Route: SUBCUTANEOUS/INTRAPERITONEAL, Dose: TOTAL DOSES 29, 145, 450 MG, Dose: TOTAL DOSES 29, 145, 450 MG, Tumor Site: Type of Lesion: KIDNEY: ADENOMA, ADENOCARCINOMA",active; positive
O=[N+]([O-])c1c2ccc3ccccc3c2cc2ccc3ccccc3c12,carcinogen call,"Species: MOUSE, Strain/Sex: B6C3F1/MALE, Route: INTRAPERITONEAL, Dose: 0, 400 NMOL IN 35 µL DMSO (TOTAL DOSE) ADMINISTERED IN DOSES OF 1/7, 2/7, AND 4/7 OF THE TOTAL DOSE ON DAYS 1,8, AND 15, Tumor Site: Type of Lesion: LIVER :ADENOMA",active; positive
O=c1cc(CO)occ1O,carcinogen call,"Species: MOUSE, Strain/Sex: B6C3F1/FEMALE, Route: ORAL, Dose: 0, 1.5, 3% IN DIET FOR 20 MONTHS (STUDY DURATION: 20 MONTHS), Dose: 0, 1.5, 3% IN DIET FOR 20 MONTHS (STUDY DURATION: 20 MONTHS), Tumor Site: Type of Lesion: THYROID: ADENOMA. LIVER: HEPATOMA",active; positive
same,carcinogen call,"Species: MOUSE, Strain/Sex: B6C3F1/MALE, Route: ORAL, Dose: 0, 1.5, 3% IN DIET FOR 20 MONTHS (STUDY DURATION: 20 MONTHS), Dose: 0, 1.5, 3% IN DIET FOR 20 MONTHS (STUDY DURATION: 20 MONTHS), Tumor Site: Type of Lesion: THYROID: ADENOMA",active; positive
same,carcinogen call,"Species: Rat, Strain/Sex: F344/Male (20/experimental group (10 killed at 31 wk & 10 killed at 44 wk); 15/controls), Route: Oral, Dose: Kojic acid at 2.0% in drinking water for 31 wk, recovery for 13 wk, study duration 44 wk, Dose: Kojic acid at 2.0% in drinking water for 31 wk, recovery for 13 wk, study duration 44 wk, Tumor Site: Type of Lesion: Thyroid: 1 adenoma at 44 wk","inactive; negative (however, significantly greater increase in thyroid follicular cell hyp"
c1ccc(Nc2ccc(Nc3ccccc3)cc2)cc1,carcinogen call,"Species: RAT, Strain/Sex: F344/FEMALE, Route: ORAL, Dose: 0, 0.5, 2% IN DIET FOR 104 WK (STUDY DURATION: 112 WK), Dose: 0, 0.5, 2% IN DIET FOR 104 WK (STUDY DURATION: 112 WK)",inactive; negative
same,carcinogen call,"Species: RAT, Strain/Sex: F344/MALE, Route: ORAL, Dose: 0, 0.5, 2% IN DIET FOR 104 WK (STUDY DURATION: 112 WK), Dose: 0, 0.5, 2% IN DIET FOR 104 WK (STUDY DURATION: 112 WK)",inactive; negative
Nc1cc([N+](=O)[O-])ccc1C(=O)O,carcinogen call,"Species: MOUSE, Strain/Sex: B6C3F1/FEMALE, Route: ORAL, Dose: 0, 0.46, 1.0% OF DIET, TWA, Dose: 0, 0.46, 1.0% OF DIET, TWA",inactive; negative
same,carcinogen call,"Species: MOUSE, Strain/Sex: B6C3F1/MALE, Route: ORAL, Dose: 0, 0.46, 1.0% OF DIET, TWA, Dose: 0, 0.46, 1.0% OF DIET, TWA",inactive; negative
same,carcinogen call,"Species: RAT, Strain/Sex: F344/FEMALE, Route: ORAL, Dose: 0, 0.46, 1.5% OF DIET, TWA, Dose: 0, 0.46, 1.5% OF DIET, TWA",inactive; negative
same,carcinogen call,"Species: RAT, Strain/Sex: F344/MALE, Route: ORAL, Dose: 0, 0.46, 1.5% OF DIET, TWA, Dose: 0, 0.46, 1.5% OF DIET, TWA",inactive; negative
CC(=O)OCN(CC(C)C)N=O,carcinogen call,"Species: RAT, Strain/Sex: F344/FEMALE, Route: SUBCUTANEOUS, Dose: 6.6 MG/KG 1/WK FOR 10 WK, Tumor Site: Type of Lesion: INJECTION SITE: MALIGNANT FIBROUS HISTIOCYTOMA",active; positive
Fc1cccc2ncccc12,carcinogen call,"Species: MOUSE, Strain/Sex: CD-1/FEMALE, Route: INTRAPERITONEAL, Dose: 0, 1.75 UMOL/MOUSE (TOTAL DOSE) ADMINISTERED DURING DAYS 1, 8, AND 15 OF LIFE (STUDY DURATION: 52 WK)",inactive; negative
same,carcinogen call,"Species: MOUSE, Strain/Sex: CD-1/MALE, Route: INTRAPERITONEAL, Dose: 0, 1.75 UMOL/MOUSE (TOTAL DOSE) ADMINISTERED DURING DAYS 1, 8, AND 15 OF LIFE (STUDY DURATION: 52 WK), Tumor Site: Type of Lesion: LIVER: CARCINOMA",active; positive
COc1ccc2c3c1O[C@H]1[C@@H](O)C=C[C@H]4[C@@H](C2)N(C)CC[C@@]341,carcinogen call,"Species: MOUSE, Strain/Sex: B6C3F1/FEMALE, Route: ORAL, Dose: 0, 750, 1500, 3000 PPM IN DIET FOR UP TO 106 WK (STUDY DURATION: 106 WK), Dose: 0, 750, 1500, 3000 PPM IN DIET FOR UP TO 106 WK (STUDY DURATION: 106 WK)",inactive; negative
same,carcinogen call,"Species: MOUSE, Strain/Sex: B6C3F1/MALE, Route: ORAL, Dose: 0, 750, 1500, 3000 PPM IN DIET FOR UP TO 106 WK (STUDY DURATION: 106 WK), Dose: 0, 750, 1500, 3000 PPM IN DIET FOR UP TO 106 WK (STUDY DURATION: 106 WK)",inactive; negative
same,carcinogen call,"Species: RAT, Strain/Sex: F344/FEMALE, Route: ORAL, Dose: 0, 400, 800, 1600 PPM IN DIET FOR UP TO 106 WK (STUDY DURATION: 106 WK), Dose: 0, 400, 800, 1600 PPM IN DIET FOR UP TO 106 WK (STUDY DURATION: 106 WK)",inactive; negative
same,carcinogen call,"Species: RAT, Strain/Sex: F344/MALE, Route: ORAL, Dose: 0, 400, 800, 1600 PPM IN DIET FOR UP TO 106 WK (STUDY DURATION: 106 WK), Dose: 0, 400, 800, 1600 PPM IN DIET FOR UP TO 106 WK (STUDY DURATION: 106 WK)",inactive; negative
